Test results published in ChEMBL document CHEMBL1201862, “PubChem BioAssay data set” (2004).
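Tested at 5 concentrations; 48 h exposure; 96-well plates; endpoints linearly interpolated, else capped at highest concentration. GI50: concentration for 50% inhibition of growth.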 Calls of active or inactive are those of the source. Cut-off read from the data, not from the text of the source: active = GI50 up to about 1.1 µM and inactive = higher.

Experiments:
Assay in all cases: NCI tumour cell line growth inhibition, 48 h
RPMI-8226 = test system: RPMI-8226
Hs-578T = test system: Hs-578T
HL-60 = test system: HL-60
T47D = test system: T47D
COLO 205 = test system: COLO 205
DMS-114 = test system: DMS-114
OVCAR-8 = test system: OVCAR-8
RXF 393 = test system: RXF 393
HOP-18 = test system: HOP-18
HOP-62 = test system: HOP-62
HCC 2998 = test system: HCC 2998
A498 = test system: A498
HCT-116 = test system: HCT-116
A549 = test system: A549
NCI-H226 = test system: NCI-H226
OVCAR-4 = test system: OVCAR-4
K562 = test system: K562
UACC-257 = test system: UACC-257
SF-295 = test system: SF-295
SK-MEL-28 = test system: SK-MEL-28

Measured: GI50

NC(=O)c1csc(C2OC(CO)C(O)C2O)n1 (stereo unspecified)
inactive: RPMI-8226 150 µM | Hs-578T 44.7 µM | HL-60 8.95 µM | T47D 2790 µM | COLO 205 7.45 µM | DMS-114 61.1 µM | OVCAR-8 26.6 µM | RXF 393 126 µM | HOP-18 1170 µM | HOP-62 90.8 µM | HCC 2998 467 µM | A498 785 µM | HCT-116 22.6 µM | A549 102 µM | NCI-H226 723 µM | OVCAR-4 13.7 µM | K562 4.26 µM | UACC-257 4400 µM

COc1ccc(OC)c(NCC#N)c1
inactive: RPMI-8226 > 100 µM | HL-60 > 100 µM | COLO 205 > 100 µM | DMS-114 > 100 µM | OVCAR-8 > 100 µM | RXF 393 > 100 µM | HOP-18 > 100 µM | HOP-62 > 100 µM | HCC 2998 > 100 µM | A498 > 100 µM | SF-295 > 100 µM | HCT-116 > 100 µM | A549 > 100 µM | NCI-H226 > 100 µM | SK-MEL-28 > 100 µM | OVCAR-4 > 100 µM | K562 > 100 µM | UACC-257 > 100 µM
